Patent US6827926B2, “Metallotetrapyrrolic photosensitizing agents for use in photodynamic therapy” (Miravant Pharmaceuticals, Inc., priority 2001, dated 2004)
Like-named read-outs stand apart in the source and are kept apart here.

Columns and labels:
[1] = tested on: V79 (Chinese Hamster Lung Fibroblasts) cells; assay: In vitro cytotoxicity assay (light EC50, Alamar blue); assay type: cell-based
Experimental: The in vitro biological evaluation of photosensitizers for their ability to photosensitize cells was performed using standard procedures. Using 5% FBS/DMEM phenol-free media, wells (180 μl/well) were plated with 5×10^4 V79 (Chinese Hamster Lung Fibroblasts) cells/ml into two 96 well plates. Plate 1 was light-treated and plate 2 served as a control. The plates were Incubated at 37° C., 5% CO2 for 3-5 hours. Standard solutions of the photosensitizers were dissolved in pre-filtered Dimethyl Sulfoxide (DMSO). Drug was diluted in 5% FBS DMEM phenol free medium. Final drug concentrations for light and dark experiments were 0.01, 0.1, 1.0, 3.0 and 5.0 μM. Twenty microliters of each concentration were added to six replicate wells to the light and dark plate. The plates were wrapped in aluminum foil to avoid photoactivation and mixed in a gyratory shaker for approximately 2 minutes. Both plates were incubated for 24 hours at 37° C., 5% CO2. After a 24 hour incubation, drug-containing media was aspirated from the plates. Each well was rinsed with 180 μl Hepes buffer salt solution (HBSS) then aspirated to remove the HBSS. 180 μl of fresh media were added (5% FBS/DMEM phenol-free) to each well. […] Plate 2 was not light treated. Immediately after light treatment, 20 μl Alamar blue was added to each well in plate 1. Alamar blue was added to plate 2 immediately after fresh media was added. The plates were mixed on a gyratory shaker for 5 min.
Both plates were incubated under dark conditions for 24 hours at 37° C., 5% CO2. After 24 hour incubation, the plates were read on a plate reader spectrophotometer (Spectra Max 250) at wavelengths 570 and 600 nm. and the percentage of cell survival recorded.

[2] = tested on: normal skin of CD Hairless male rats; assay type: in vivo, rat; conditions: rat, in vivo
Text: We tested metallo- and metal-free tetrapyrroles systemically (see following section) for normal skin response in relation to the pharmacodynamic distribution of the photosensitizers in CD hairless rats. The skin of CD hairless rats are poorly developed, often referred to as hyperkeratotic, with various sized cystic hair follicles containing concentric lamellar accumulations of keratinaceous material, which are often associated with enlarged sebaceous glands. It quickly became apparent that gallium tetrapyrroles induced a marked clearing of the hyperkeratotic lesions in the treatment areas on the hairless rats. In fact, this clearing could be induced without necrosis of the skin. No other metallotetrapyrrole type produced such effects. This observation led us to assess the metallotetrapyrrolic compounds for skin restructuring effects both topically and systemically and for their ability to reduce hair growth in the following animal models.
Photosensitizer normal skin response as well as skin healing response, was evaluated using CD Hairless male rats. Photosensitizers were administered in an liposomal egg yolk phospholipid formulation at 1, 1.5 and 2 μmol/kg body weight formulation per dose group as a single bolus intravenous injection given through a marginal tail vein using a 27 gauge needle and a 1 cc tuberculin syringe. Normal skin responses were evaluated by irradiating several spots on the skin of the rat with a 532 nm laser (150 mW/cm^2, 150J, 1 cm diameter) at 1, 6, 24, 48, and 96 hrs post injection. Normal skin responses were evaluated and documented. The time at which the last spot is observed at the concentration injected is reported in the far right hand column in Tables 3, 4, 5 and 6. Skin samples were taken for histological evaluation at days 1, 10, 20 and 22 post light treatment. Rats were housed under normal lighting and all study procedures involving the test article were conducted under light filtered through blue and green Roscolox light filters to prevent photoactivation or degradation of the drug.

[3] = tested on: normal uninjured rat carotid arteries (medial and adventitial cell populations); assay: In vivo rat carotid artery acellularity after PDT; parameters: species or system Sprague Dawley rats; conditions: for Max % rat Artery Accelularity: Table 3, 50 J/cm^2, 3 days post treatment; for efficacy of free base porphyrins in the arterial rat model: at the time point, drug and light dose parameters used
Experimental: The acute effects of metallated photosensitizers, in response to light activation, to cause depletion of cell populations in the medial and adventitial layers of vessels was measured in normal uninjured rat carotid arteries. […] Shortly before the light treatment, the rats were anaesthetized with 3.5% isoflurane (Abbott Laboratories, IL, USA) and the femoral region of the right leg was shaved and cleaned. […] A direct arteriotomy was performed and a light balloon catheter ([…] Medical Technologies, Inc) was introduced into the vessel and advanced retrogradely into a non-manipulated region of the left common carotid artery via the abdominal aorta. […] After light treatment and removal of the catheter, the right femoral artery was tied off and the skin wound was closed. Rats were sacrificed three days post treatment as this corresponds to the known peak time that vascular cells, e.g., VSMC and myofibroblasts, proliferate and migrate in response to an injury. The area spanning both left and right carotid arteries and surrounding tissue was harvested, fixed, embedded in paraffin and sectioned. The tissues were stained with Hematoxylin and Eosin (Fisher Scientific, PA) and examined by light microscopy to histologically assess the cell population density in the medial and adventitial layers of the PDT-treated vessel wall. […] Metallo azaporphyrins with Ga, Zn, Al, Sn were excited at 575 nm, while Pt azaporphyrins were excited at 532 nm.

[4] = Table 3 porphyrins, 24 h drug incubation, 532 nm, 1.25 J/cm^2, read-out: In Vitro EC50 Light
[5] = light EC50, metallodiazaporphyrins, read-out: In Vitro EC(50)
[6] = Table 4 azaporphyrins, 575 nm (Pt azaporphyrins 532 nm), 1.25 J/cm^2, read-out: In Vitro EC(50)

Molecule	EC50 [1, 4] [nM]	Max % rat Artery Accelularity ([3]; drug dose 1 μMol) [%]	further results
COC(=O)CCC1=C(C)c2cc3[n-]c(cc4nc(cc5[n-]c(cc1n2)c(CCC(=O)OC)c5C)C(C)=C4C=CCN(C)C)c(C)c3C=CCN(C)C.[Ga+3].[OH-] [Example 43, Gallium Hydroxy 3,8-Bis-(N,N-dimethylaminoprop-2-en-3-yl)deuteroporphyrin dimethyl ester]	2450		Normal skin Response (1 μmol) in hrs [2]: None
CCOC(=O)CCCCC1=C(C)c2cc3[nH]c(cc4nc(cc5[nH]c(cc1n2)c(CCCCC(=O)OCC)c5C)C(C)=C4CC)c(C)c3CC.[Pt] [Example 53, Platinum 8,13-diethyl-3,7,12,17-tetramethylporphyrin-2,18-di(pentanoic acid ethyl ester)]	100	20	
CCC1=C(C)C2=[N+]3C1=Cc1c(C)c(CC)c4[n]1[Al-2]31([Cl])[n]3c(c(C)c(CCCO)c3=CC3=[N+]1C(=C4)C(C)=C3CCCO)=C2 [Example 73, Aluminum Chloride 8,13-diethyl-3,7,12,17-tetramethylporphyrin-2,18-di(3′-hydroxypropyl)]	3600	0	
CCC1=C(C)c2cc3[n-]c(cc4nc(cc5[n-]c(cc1n2)c(C)c5CC)C(C)=C4CCCN(CC)CC)c(CCCN(CC)CC)c3C.[Zn+2] [Example 79, Zinc 8,13-diethyl-3,7,12,17 tetramethylporphyrin-2,18-di((N,N-diethyl)-3-aminopropyl)]			Normal skin Response (1 μmol) in hrs [2]: None
CCC1=C(CC)C2=[N+]3C1=Nc1c(CC)c(CC)c4[n]1[Pt-2]31[n]3c(c(C)c(CCC(=O)[O-])c3=CC3=[N+]1C(=C4)C(C)=C3CCC(=O)[O-])=C2.[K+].[K+] (stereo not shown) [Example 86, Platinum 7,8,12,13-tetraethyl-12,17-dimethyl-10-azaporphyrin-2,18-di(propionic acid Potassium Salt)]			Normal skin Response (1 μmol) [2]: 96 h
CCC1=C(C)c2cc3[n-]c(cc4nc(cc5[n-]c(cc1n2)c(C)c5CC)C(C)=C4CCC(=O)[O-])c(CCC(=O)[O-])c3C.[In+3].[Na+].[Na+].[OH-] [Example 110, Indium Hydroxy Mesoporphyrin Disodium Salt]	1000	0	
CCC1=C(C)C2=Cc3c(CC)c(C)c4[n]3[Pt][n]3c(c(C)c(CCC(=O)[O-])c3=CC3=NC(=C4)C(C)=C3CCC(=O)[O-])=CC1=N2.[Na+].[Na+] [Example 111, Platinum Mesoporphyrin Disodium Salt]	700	0	
C=CC1=C(C)c2cc3[n-]c(cc4nc(cc5[n-]c(cc1n2)c(C)c5CCC(=O)[O-])C(CCC(=O)[O-])=C4C)c(C)c3C=C.[In+3].[Na+].[Na+].[OH-] [Example 112, Indium Hydroxy Protoporphyrin Disodium Salt]	1500	0	
CC1=C(CCC(=O)[O-])c2cc3[n-]c(cc4nc(cc5[n-]c(cc1n2)c(CCC(=O)[O-])c5C)C(C)=C4CCC(=O)[O-])c(CCC(=O)[O-])c3C.[In+3].[Na+].[Na+].[Na+].[Na+].[OH-] [Example 113, Indium Hydroxy Coproporphyrin III Tetra Sodium Salt]	3600	0	
CCC1=C(CC)C2=[N+]3C1=Nc1c(CC)c(CC)c4[n]1[Pt-2]31[n]3c(c(CC)c(CC)c3=C2c2ccc(OC)cc2)=NC2=[N+]1C(=C4c1ccc(OC)cc1)C(CC)=C2CC (stereo not shown) [M=Pt, R1=Et, R2=Et, R3=p-(C6H4)OCH3]			EC50 [1, 5]: 300 nM
CCC1=C(C)c2cc3[nH]c(cc4nc(cc5[nH]c(cc1n2)c(C)c5CCC(=O)OC)C(CCC(=O)OC)=C4C)c(C)c3CC [mesoporphyrin dimethyl ester, reference compound]			efficacy of free base porphyrins in the arterial rat model [3]: poor efficacy
CCC1=C(C)c2cc3[nH]c(cc4nc(cc5[nH]c(cc1n2)c(C)c5CC)C(C)=C4CCCC(=O)OC)c(CCCC(=O)OC)c3C [metal-free analog of compound 26, 8,13-diethyl-3,7,12,17-tetramethylporphyrin-2,18-di(butanoic acid methyl ester)]			efficacy of free base porphyrins in the arterial rat model [3]: poor efficacy
CCOC(=O)CCCCC1=C(C)c2cc3[nH]c(cc4nc(cc5[nH]c(cc1n2)c(CCCCC(=O)OCC)c5C)C(CC)=C4C)c(CC)c3C [metal-free analog of compound 28, 8,13-diethyl-3,7,12,17-tetramethylporphyrin-2,18-di(pentanoic acid ethyl ester)]			efficacy of free base porphyrins in the arterial rat model [3]: poor efficacy
Aluminum Chloride 8,13-diethyl-3,7,12,17-tetramethylporphyrin-2,18-di(butanoic acid methyl ester) [Example 48]	4000	0	
Gallium Chloride 3,7,14,17-tetramethyl-5,10-diazaporphyrin-2,8,12,18-tetra (3′-hydroxypropyl) [Example 118]			EC50 [1, 5]: 300 nM
Gallium Chloride 3,7,14,17-tetramethyl-5,10-diazaporphyrin-2,8,12,18-tetra propionic acid [Example 117]			EC50 [1, 5]: 600 nM
Gallium Chloride 7,8,12,13-tetraethyl-12,17-dimethyl-10-azaporphyrin-2,18-di(3′-hydroxypropyl) [Example 23]			EC50 [1, 6]: 50 nM; Max % Rat Artery Accelularity ([3]; Table 4, drug dose 1 μMol, 575 nm (Pt 532 nm)): 50%
Gallium Chloride 7,8,12,13-tetraethyl-12,17-dimethyl-10-azaporphyrin-2,18-di(propionic acid-2′-N,N-dimethylaminoethyl amide) [Example 102]			EC50 [1, 6]: 1200 nM
Gallium Chloride 7,8,12,13-tetraethyl-12,17-dimethyl-10-azaporphyrin-2,18-di(propionic acid-3′-hydroxypropyl amide) [Example 97]			EC50 [1, 6]: 1700 nM
Gallium Chloride 8,13-diethyl-3,7,12,17-tetramethylporphyrin-2,18-di(butanoic acid methyl ester) [Example 26]	370	75	
Platinum 3,7,14,17-tetramethyl-5,10-diazaporphyrin-2,8,12,18-tetra(3′-hydroxypropyl) [Example 120]			EC50 [1, 5]: 60 nM
Platinum 3,7,14,17-tetramethyl-5,10-diazaporphyrin-2,8,12,18-tetra(propionic acid methyl ester [Example 119]			EC50 [1, 5]: 350 nM
Zinc 8,13-diethyl-3,7,12,17-tetramethylporphyrin-2,18-di(butanoic acid methyl ester) [Example 49]	4000	0	
